Results from US20250171743A1, “HUMAN TOOTH ORGANOIDS” (Katholieke Universiteit Leuven, priority 2022, published 2025).
One block for each molecule: values may come before it.

Assays:
[1] = tested on: human dental follicle; test: Organoid formation from dissociated dental follicle; essentiality of medium factors assessed by omitting; format: cell-based; conditions: individual factor omitted from medium; P0, day 14 (FIG. 7a)
Excerpt: To develop epithelial organoids starting from human tooth, the dental follicle, known to encompass a large mesenchymal component but also the small epithelial epithelial cell rests of Malassez compartment, was isolated from unerupted third molars (wisdom teeth) extracted from adolescent patients (FIG. 1a). After tissue dissociation, the epithelial-mesenchymal cell mixture, comprising single cells and cell clusters, was embedded in Matrigel and cultured in a precisely defined medium. Organoids are typically established using a cocktail of growth and regulatory factors active in the tissue's epithelial stem cell niche. In case niche signals are unresolved, factors with a key role in the tissue's embryonic development are applied. […] The starting point is a medium containing these factors as well as generic organoid growth factors (such as WNT activators, nicotinamide, BMP inhibitor and p38 MAPK inhibitor), and assessed the essentiality of individual factors by omitting. […] Eventually, this systematic evaluation led to defining an optimized medium (further referred to as tooth organoid medium or TOM; Table 1), allowing to develop organoid lines from dental follicle samples at 100% efficiency (Table 2).
Third molars, predominantly unerupted, were extracted from adolescent patients (Table 2) at the ‘Oral and Maxillo-Facial Surgery-Imaging & Pathology (OMFS-IMPATH)’ unit of University Hospitals (UZ) Leuven after informed consent. The study was approved by the Ethics Committee Research UZ/KU Leuven (13/0104U). For sample collection, the gingiva was pushed aside after which the bone was perforated and the third molars with associated dental follicles were carefully isolated (without the visually distinct gingiva). dental follicle tissue was diligently peeled from the tooth and collected in Eagle's Minimum Essential Medium (αMEM; Sigma-Aldrich) supplemented with 10% foetal bovine serum (FBS; Sigma-Aldrich), 1% penicillin-streptomycin (Gibco) and 0.5% fungizone (Amphotericin B; Gibco). Following short rinsing steps in 70% ethanol and phosphate-buffered saline (PBS; Gibco), tissue was minced into small (˜1 mm^2) fragments, and further dissociated using collagenase VI (3 mg/ml; Thermo Fisher Scientific) and dispase II (4 mg/ml; Sigma-Aldrich) for 2 h at 37° C., while regularly pipetting up and down. The single cells and few small cell clusters were collected through a 40 μm cell strainer (Corning) while removing the remaining larger and fibrous tissue fragments.
(§1) The dissociated dental follicle cell material was resuspended in a mixture of serum-free defined medium (SFDM; Thermo Fisher Scientific; Table 4) and growth factor-reduced Matrigel (Corning) in a 30:70 ratio, which was plated in 48-well plates at 20,000 cells per 20 μL drop. After solidification, tooth organoid medium (TOM; Table 1), unless indicated otherwise, was supplemented. ROCK inhibitor (RI; 10 μM; Merck Millipore) was added the first day of seeding (or passaging). Organoid cultures were kept at 37° C. in a 1.9% CO2 incubator, and medium was refreshed every 2 to 3 days, each time supplemented with fungizone (0.1%).

[2] = tested on: tooth organoids; test: EGF supplementation of tooth organoid cultures (TOM+EGF): proliferation and EMT; format: cell-based, human
Excerpt: To establish organoids from primary tissues, supplementation of EGF is generally found quintessential. […] In vivo, it is known that elevated EGF levels in the epithelial cell rests of Malassez compartment (as, for instance, occurring upon tooth movement, infection or trauma) activates epithelial cell rests of Malassez cell proliferation [Davis (2018) J. Vet. Dent. 35, 290-298]. […] It has been proposed that EMT induction in the epithelial cell rests of Malassez (as, for instance, occurring upon damaging tooth impact) enables the cells to migrate and eventually contribute to regeneration of neighbouring tissues [Davis (2018) J. Vet. Dent. 35, 290-298].
as §1
(§2) Primary dental follicle tissue, organoids and assembloid were fixed in 4% PFA for 1h, embedded in paraffin, and sections subjected to hematoxylin and eosin (H&E), immunofluorescence or ARS staining. Antigen retrieval (10 mM citrate, pH6) and permeabilization (0.1% Triton X-100; Sigma-Aldrich) were performed. After incubation with primary and secondary antibodies (Table 5), sections were mounted with Vectashield (DAPI; Vector Laboratories) or DPX mountant (Sigma-Aldrich). Analysis was done using a Leica DM5500 epifluorescence microscope or a Zeiss Axioimager epifluorescence microscope. ImageJ software was used to quantify immunoreactive signal intensity and the ‘corrected total organoid fluorescence’ (CTOF) (=integrated density−(area of organoid×mean fluorescence of background readings).
RNA was extracted from dissociated dental follicle, organoids and assembloids using the GenElute Mammalian Total RNA Miniprep Kit (Sigma-Aldrich) according to the manufacturer's instructions. RNA was reverse-transcribed (RT) using the Superscript III First-Strand Synthesis Supermix (Thermo Fisher Scientific) and the resultant cDNA samples were analysed with SYBR Green-based quantitative PCR (qPCR) using the StepOnePlus Real-Time PCR System (AB Applied Biosystems). Forward and reverse primers (Table 6) were designed using PrimerBank and PrimerBlast. […] Relative gene expression levels were calculated as ΔCt (Ct target−Ct housekeeping gene) and compared to control (see figure legends).

[3] = tested on: tooth organoids; test: Effect of TGFβ and TGFβ receptor inhibitor on differentiation of organoids switched to MIM; format: cell-based, human
Excerpt: The above analyses exposed the enrichment of TGFβ pathway processes in tooth organoids subjected to ameloblast differentiation, in line with the proposed key role of TGFβ in amelogenesis. To assess the impact of the TGFβ pathway, organoids grown in TOM (P5) were switch to MIM with or without TGFβ (FIG. 6a).
During tooth root development, Hertwig's epithelial root sheath (HERS), from which epithelial cell rests of Malassez is eventually derived, undergoes EMT to develop to participate in periodontal ligament formation. It has previously been proposed that this EMT process is regulated by TGFβ, thereby triggering HERS/epithelial cell rests of Malassez cells to switch phenotype toward periodontal ligament cells.
Organoids (or dissociated dental follicle) were cultured in mineralization-inducing medium (MIM; Table 3; time schedule, see FIG. 4a and FIG. 10d) as described above. Recombinant human TGFβ1 (10 ng/ml; R&D) and the selective TGFβ receptor 1/2 inhibitor LY2109761 (5 μM; Selleckchem) were added when indicated.
as §2
RNA was extracted from dissociated dental follicle, organoids and assembloids using the GenElute Mammalian Total RNA Miniprep Kit (Sigma-Aldrich) according to the manufacturer's instructions. RNA was reverse-transcribed (RT) using the Superscript III First-Strand Synthesis Supermix (Thermo Fisher Scientific) and the resultant cDNA samples were analysed with SYBR Green-based quantitative PCR (qPCR) using the StepOnePlus Real-Time PCR System (AB Applied Biosystems). Forward and reverse primers (Table 6) were designed using PrimerBank and PrimerBlast. Glyceraldehyde-3-phosphate dehydrogenase (GAPDH) was included as housekeeping gene. Relative gene expression levels were calculated as ΔCt (Ct target−Ct housekeeping gene) and compared to control (see figure legends).

[4] = tested on: assembloids; test: Assembloids (organoid-derived epithelial cells plus DPSCs) cultured in TOM+αMEM with TGFβ receptor inhibitor; format: cell-based, human; conditions: inhibitor 5 μM in TOM+αMEM
Method: It was chosen to use DPSCs to mimic early stages of tooth development in which DPSC-derived odontoblasts are in close contact with ameloblasts. The DPSCs, isolated, grown and characterized using well-defined standard protocols, were combined with organoid-derived epithelial stem cells in a layered approach, thereby forming composite organoids (assembloids) which were cultured in a mixture of TOM and the DPSC growth medium αMEM (FIG. 6d).
Whereas ODAM is not present in the straight (pure) epithelial organoids cultured in TOM (see above and FIG. 12c), it is expressed in the assembloids (FIG. 6d). This induction is not due to the addition of αMEM to TOM (FIG. 12c). […]
Primary dental follicle tissue, organoids and assembloid were fixed in 4% PFA for 1h, embedded in paraffin, and sections subjected to hematoxylin and eosin (H&E), immunofluorescence or ARS staining. […] ImageJ software was used to quantify immunoreactive signal intensity and the ‘corrected total organoid fluorescence’ (CTOF) (=integrated density−(area of organoid×mean fluorescence of background readings).
RNA was extracted from dissociated dental follicle, organoids and assembloids using the GenElute Mammalian Total RNA Miniprep Kit (Sigma-Aldrich) according to the manufacturer's instructions. […] Relative gene expression levels were calculated as ΔCt (Ct target−Ct housekeeping gene) and compared to control (see figure legends).

Molecule: NC(=O)c1cccnc1 [nicotinamide, reference compound]
need of the factor for efficient organoid formation [1]: needed for efficient organoid formation

Molecule: insulin-like growth factor-1 [IGF1]
need of the factor for efficient organoid formation [1]: needed for efficient organoid formation

Molecule: FGF2
need of the factor for efficient organoid formation [1]: needed for efficient organoid formation

Molecule: epidermal growth factor [EGF]
number of proliferating (KI67+) cells in the organoids ([2]; EGF 50 ng/ml to initiating cultures, P0, day 7): increased number | proliferation ([2]; EGF 50 ng/ml, P0, day 14): decline in proliferation | EMT / VIM expression in the organoids' border ([2]; EGF 50 ng/ml, P0, day 14, colocalized with CK5 or P63): induction of an EMT process | VIM+ cells after EGF exposure following growth and expansion in TOM ([2]; P5, day 14, also cell migration out of organoids): appearance of VIM^+ cells

Molecule: Oc1ccc(-c2nc(-c3ccncc3)c(-c3ccc(F)cc3)[nH]2)cc1 [SB202190, reference compound]
need of the factor for efficient organoid formation [1]: needed for efficient organoid formation

Molecule: sonic hedgehog [SHH]
need of the factor for efficient organoid formation [1]: needed for efficient organoid formation

VIM expression in the epithelial (CK5+) organoids ([3]; MIM with TGFβ): further increased | AMTN gene expression ([3]; MIM with TGFβ 10 ng/ml, RT-qPCR): increased expression | expression of periodontal ligament-specific genes POSTN and COL3A1 ([3]; MIM with TGFβ, RT-qPCR): significantly stimulated | ODAM expression (immunofluorescence) ([3]; TOM-grown P5 organoids switched to MIM with TGFβ 10 ng/ml): further upregulated
Molecule: transforming growth factor-beta [TGFβ]

effect of TGFβ on ODAM and AMTN expression ([3]; inhibitor 5 μM added simultaneously with TGFβ in MIM): blocked | upregulated ODAM and AMTN expression in MIM ([3]; inhibitor 5 μM, without exogenous TGFβ): strongly reduced
Molecule: c1ccc(-c2nn3c(c2-c2ccnc4cc(OCCN5CCOCC5)ccc24)CCC3)nc1 [LY2109761, reference compound]
AMTN expression in the assembloids [4]: reduced | ODAM protein expression in the assembloids [4]: completely abolished

B1: R-spondin 1 (protein, UniProt Q2MKA7 21-263, looked up)
R-spondin-1: SRGIKGKRQRRISAEGSQACAKGCELCSEVNGCLKCSPKLFILLERNDIRQVGVCLPSCPPGYFDARNPDMNKCIKCKIEHCEACFSHNFCTKCKEGLYLHKGRCYPACPEGSSAANGTMECSSPAQCEMSEWSPWGPCSKKQQLCGFRRGSEERTRRVLHAPVGDHAACSDTKETRRCTVRRVPCPEGQKRRKGGQGRRENANRNLARKESKEAGAGSRRRKGQQQQQQQGTVGPLTSAGPA
need of the factor for efficient organoid formation [1]: needed for efficient organoid formation

B2: FGF8 (protein, UniProt P55075 23-233, looked up)
Fibroblast growth factor 8: QEGPGRGPALGRELASLFRAGREPQGVSQQHVREQSLVTDQLSRRLIRTYQLYSRTSGKHVQVLANKRINAMAEDGDPFAKLIVETDTFGSRVRVRGAETGLYICMNKKGKLIAKSNGKGKDCVFTEIVLENNYTALQNAKYEGWYMAFTRKGRPRKGSKTRQHQREVHFMKRLPRGHHTTEQSLRFEFLNYPPFTRSLRGSQRTWAPEPR
notes: fibroblast growth factor
need of the factor for efficient organoid formation [1]: needed for efficient organoid formation

B3: FGF10 (protein, UniProt O15520 38-208, looked up)
Fibroblast growth factor 10: QALGQDMVSPEATNSSSSSFSSPSSAGRHVRSYNHLQGDVRWRKLFSFTKYFLKIEKNGKVSGTKKENCPYSILEITSVEIGVVAVKAINSNYYLAMNKKGKLYGSKEFNNDCKLKERIEENGYNTYASFNWQHNGRQMYVALNGKGAPRRGQKTRRKNTSAHFLPMVVHS
notes: fibroblast growth factor
need of the factor for efficient organoid formation [1]: needed for efficient organoid formation

B4: Noggin (protein, UniProt Q13253 28-232, looked up)
Noggin: QHYLHIRPAPSDNLPLVDLIEHPDPIFDPKEKDLNETLLRSLLGGHYDPGFMATSPPEDRPGGGGGAAGGAEDLAELDQLLRQRPSGAMPSEIKGLEFSEGLAQGKKQRLSKKLRRKLQMWLWSQTFCPVLYAWNDLGSRFWPRYVKVGSCFSKRSCSVPEGMVCKPSKSVHLTVLRWRCQRRGGQRCGWIPIQYPIISECKCSC
need of the factor for efficient organoid formation [1]: needed for efficient organoid formation
